Test results from patent publication US20240116985A1, “STAPLED PEPTIDES AND METHODS THEREOF” (priority 2020, published 2024).
Read-outs that look alike come from different tables or passages of the source.

Biological target: T1, full-length beta-Catenin (Uniprot ID P35222) (Homo sapiens, UniProt P35222)
T1 construct: 10 nM full-length beta-Catenin (Uniprot ID P35222)
T1 sequence (P35222 1-781): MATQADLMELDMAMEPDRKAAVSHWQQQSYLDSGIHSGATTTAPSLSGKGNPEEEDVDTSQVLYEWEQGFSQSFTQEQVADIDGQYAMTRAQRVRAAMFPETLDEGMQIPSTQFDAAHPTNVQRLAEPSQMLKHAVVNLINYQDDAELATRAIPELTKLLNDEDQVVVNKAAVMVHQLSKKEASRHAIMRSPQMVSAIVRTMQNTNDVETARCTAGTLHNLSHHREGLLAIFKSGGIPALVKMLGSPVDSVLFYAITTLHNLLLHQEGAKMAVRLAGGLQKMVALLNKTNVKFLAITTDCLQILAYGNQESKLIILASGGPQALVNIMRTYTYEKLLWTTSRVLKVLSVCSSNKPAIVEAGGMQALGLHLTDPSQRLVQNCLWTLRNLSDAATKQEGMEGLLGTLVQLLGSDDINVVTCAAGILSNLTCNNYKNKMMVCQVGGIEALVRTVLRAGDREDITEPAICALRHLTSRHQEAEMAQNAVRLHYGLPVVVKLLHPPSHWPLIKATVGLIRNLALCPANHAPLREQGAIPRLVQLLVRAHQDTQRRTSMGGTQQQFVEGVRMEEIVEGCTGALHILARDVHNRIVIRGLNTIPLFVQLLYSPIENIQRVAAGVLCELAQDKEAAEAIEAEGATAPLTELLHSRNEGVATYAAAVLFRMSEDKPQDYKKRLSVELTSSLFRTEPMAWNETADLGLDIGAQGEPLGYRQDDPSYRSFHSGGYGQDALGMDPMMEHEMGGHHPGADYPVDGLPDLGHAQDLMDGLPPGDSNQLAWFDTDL
Assay: Fluorescence polarization IC50 (beta-catenin / 5FAM-TCF4 10-53 competition)
Format: binding
Conditions: read-out: beta-Catenin FP IC50

| Structure (SMILES) | IC50 (fluorescence polarization) [nM] | IC50 [nM] |
| --- | --- | --- |
| CC(=O)N1CCC[C@]12CC=CCCCC1(CCCC=CCCCOC(=O)N3CC[C@@](C(=O)N[C@@H](Cc4ccsc4)C(=O)N[C@@H](Cc4c[nH]c5ccccc45)C(=O)N[C@@H](CCC(N)=O)C(N)=O)(C3)NC(=O)[C@H](CC(N)=O)NC(=O)[C@H](Cc3ccccc3)NC(=O)[C@H](C)NC(=O)[C@H](C)NC(=O)[C@H](CC(=O)O)NC(=O)[C@H](CC(=O)O)NC1=O)NC(=O)[C@H](CC(C)(C)C)NC(=O)[C@H](CC(=O)O)NC2=O (stereo partly drawn) [I-2175, Ac-PL3-Asp-Npg-B5-Asp-Asp-Ala-Ala-Phe-Asn-PyrS2-3Thi-Trp-Gln-NH2] | 19 |  |
| CC(=O)N1CCC[C@]12CC=CCCCC1(CCCC=CCCCOC(=O)N3CC[C@@](C(=O)N[C@@H](Cc4ccsc4)C(=O)N[C@@H](Cc4c[nH]c5cccc(Cl)c45)C(=O)N[C@@H](CCC(N)=O)C(N)=O)(C3)NC(=O)[C@H](CC(N)=O)NC(=O)[C@H](Cc3ccccc3)NC(=O)[C@H](C)NC(=O)[C@H](C)NC(=O)[C@H](CC(=O)O)NC(=O)[C@H](CC(=O)O)NC1=O)NC(=O)[C@H](CC(C)(C)C)NC(=O)[C@H](CC(=O)O)NC2=O (stereo partly drawn) [I-2176, Ac-PL3-Asp-Npg-B5-Asp-Asp-Ala-Ala-Phe-Asn-PyrS2-3Thi-4C1W-Gln-NH2] | 87 |  |
| CC(=O)N1CCC[C@]12CC=CCCCC1(CCCC=CCCCOC(=O)N3CC[C@@](C(=O)N[C@@H](Cc4ccsc4)C(=O)N[C@@H](Cc4c[nH]c5cccc(Cl)c45)C(=O)N[C@@H](CCC(N)=O)C(N)=O)(C3)NC(=O)[C@H](CC(C)C)NC(=O)[C@H](Cc3ccccc3)NC(=O)[C@H](C)NC(=O)[C@H](C)NC(=O)[C@H](CC(=O)O)NC(=O)[C@H](CC(=O)O)NC1=O)NC(=O)[C@H](CC(C)(C)C)NC(=O)[C@H](CC(=O)O)NC2=O (stereo partly drawn) [I-2177, Ac-PL3-Asp-Npg-B5-Asp-Asp-Ala-Ala-Phe-Leu-PyrS2-3Thi-4C1W-Gln-NH2] | 253 |  |
| CC(=O)N1CCC[C@]12CC=CCCCC1(CCCC=CCCCOC(=O)N3CC[C@@](C(=O)N[C@@H](Cc4ccsc4)C(=O)N[C@@H](Cc4c[nH]c5cccc(F)c45)C(=O)N[C@@H](CCC(N)=O)C(N)=O)(C3)NC(=O)[C@H](CC(N)=O)NC(=O)[C@H](Cc3ccccc3)NC(=O)[C@H](C)NC(=O)[C@H](C)NC(=O)[C@H](CC(=O)O)NC(=O)[C@H](CC(=O)O)NC1=O)NC(=O)[C@H](CC(C)(C)C)NC(=O)[C@H](CC(=O)O)NC2=O (stereo partly drawn) [I-2178, Ac-PL3-Asp-Npg-B5-Asp-Asp-Ala-Ala-Phe-Asn-PyrS2-3Thi-4FW-Gln-NH2] | 42 |  |
| CC(=O)N1CCC[C@]12CC=CCCCC1(CCCC=CCCCOC(=O)N3CC[C@@](C(=O)N[C@@H](Cc4ccsc4)C(=O)N[C@@H](Cc4c[nH]c5cccc(F)c45)C(=O)N[C@@H](CCC(N)=O)C(N)=O)(C3)NC(=O)[C@H](CC(C)C)NC(=O)[C@H](Cc3ccccc3)NC(=O)[C@H](C)NC(=O)[C@H](C)NC(=O)[C@H](CC(=O)O)NC(=O)[C@H](CC(=O)O)NC1=O)NC(=O)[C@H](CC(C)(C)C)NC(=O)[C@H](CC(=O)O)NC2=O (stereo partly drawn) [I-2179, Ac-PL3-Asp-Npg-B5-Asp-Asp-Ala-Ala-Phe-Leu-PyrS2-3Thi-4FW-Gln-NH2] | 67 |  |
| CC(=O)N1CCC[C@]12CC=CCCCC1(CCCC=CCCCOC(=O)N3CC[C@@](C(=O)N[C@@H](Cc4ccsc4)C(=O)N[C@@H](Cc4c[nH]c5ncccc45)C(=O)N[C@@H](CCC(N)=O)C(N)=O)(C3)NC(=O)[C@H](CC(N)=O)NC(=O)[C@H](Cc3ccccc3)NC(=O)[C@H](C)NC(=O)[C@H](C)NC(=O)[C@H](CC(=O)O)NC(=O)[C@H](CC(=O)O)NC1=O)NC(=O)[C@H](CC(C)(C)C)NC(=O)[C@H](CC(=O)O)NC2=O (stereo partly drawn) [I-2180, Ac-PL3-Asp-Npg-B5-Asp-Asp-Ala-Ala-Phe-Asn-PyrS2-3Thi-7AzaW-Gln-NH2] | 2090 |  |
| CC(=O)N1CCC[C@]12CC=CCCCC1(CCCC=CCCCOC(=O)N3CC[C@@](C(=O)N[C@@H](Cc4ccsc4)C(=O)N[C@@H](Cc4c[nH]c5ncccc45)C(=O)N[C@@H](CCC(N)=O)C(N)=O)(C3)NC(=O)[C@H](CC(C)C)NC(=O)[C@H](Cc3ccccc3)NC(=O)[C@H](C)NC(=O)[C@H](C)NC(=O)[C@H](CC(=O)O)NC(=O)[C@H](CC(=O)O)NC1=O)NC(=O)[C@H](CC(C)(C)C)NC(=O)[C@H](CC(=O)O)NC2=O (stereo partly drawn) [I-2181, Ac-PL3-Asp-Npg-B5-Asp-Asp-Ala-Ala-Phe-Leu-PyrS2-3Thi-7AzaW-Gln-NH2] | 2880 |  |
| CC(=O)N1CCC[C@]12CC=CCCCC1(CCCC=CCCCOC(=O)N3CC[C@@](C(=O)N[C@@H](Cc4ccsc4)C(=O)N[C@@H](Cc4csc5ccccc45)C(=O)NC(CCCCNC(=O)c4ccc5c(c4)B(O)OC5)C(N)=O)(C3)NC(=O)[C@H](CC(C)C)NC(=O)[C@H](Cc3ccccc3)NC(=O)[C@H](C)NC(=O)[C@H](C)NC(=O)[C@H](CN(CC(=O)O)CC(F)(F)F)NC(=O)[C@H](CC(=O)O)NC1=O)NC(=O)[C@H](CC(C)(C)C)NC(=O)[C@H](CC(=O)O)NC2=O (stereo partly drawn) [I-2186, Ac-PL3-Asp-Npg-B5-Asp-TfeGA-Ala-Ala-Phe-Leu-PyrS2-3Thi-BztA-BnBoroleK-NH2] |  | 459 |
| CC(=O)N1CCC[C@]12CC=CCCCC1(CCCC=CCCCOC(=O)N3CC[C@@](C(=O)N[C@@H](Cc4ccsc4)C(=O)N[C@@H](Cc4csc5ccccc45)C(=O)N[C@@H](CC(C)(C)C)C(N)=O)(C3)NC(=O)[C@H](CC(C)C)NC(=O)[C@H](Cc3ccccc3)NC(=O)[C@H](C)NC(=O)[C@H](CC(=O)N(C)C)NC(=O)[C@H](Cc3cccc(C(=O)O)c3)NC(=O)[C@H](CC(=O)O)NC1=O)NC(=O)[C@H](CC(C)(C)C)NC(=O)[C@H](CC(=O)O)NC2=O (stereo partly drawn) [I-2196, Ac-PL3-Asp-Npg-B5-Asp-3COOHF-Me2Asn-Ala-Phe-Leu-PyrS2-3Thi-BztA-Npg-NH2] | 41 |  |

More lines, main results first:

| IC50 (fluorescence polarization) [nM] | Structure (SMILES) | IC50 [nM] |
| --- | --- | --- |
| 441 | CC(=O)N1CCC[C@]12CC=CCCCC1(CCCC=CCCCOC(=O)N3CC[C@@](C(=O)N[C@@H](Cc4ccccc4)C(=O)N[C@@H](Cc4csc5ccccc45)C(=O)N[C@@H](CCO)C(N)=O)(C3)NC(=O)[C@H](CC(C)C)NC(=O)[C@H](Cc3ccccc3)NC(=O)[C@H](C)NC(=O)[C@H](CCCCNC(C)C)NC(=O)[C@H](CCC(N)=O)NC(=O)[C@H](CC(=O)O)NC1=O)NC(=O)[C@H](CC1CCCCC1)NC(=O)[C@H](CC(N)=O)NC2=O (stereo partly drawn) [I-2165, Ac-PL3-Asn-Cha-B5-Asp-Gln-iPrLys-Ala-Phe-Leu-PyrS2-Phe-BztA-Hse-NH2] |  |
| 1590 | CC(=O)N1CCC[C@]12CC=CCCCC1(CCCC=CCCCOC(=O)N3CC[C@@](C(=O)N[C@@H](Cc4cccc(C(N)=O)c4)C(=O)N[C@@H](Cc4csc5ccccc45)C(=O)N[C@@H](CCO)C(N)=O)(C3)NC(=O)[C@H](CC(C)C)NC(=O)[C@H](Cc3ccccc3)NC(=O)[C@H](C)NC(=O)[C@H](CCCCNC(C)C)NC(=O)[C@H](CCC(N)=O)NC(=O)[C@H](CC(=O)O)NC1=O)NC(=O)[C@H](CC1CCCCC1)NC(=O)[C@H](CC(N)=O)NC2=O (stereo partly drawn) [I-2166, Ac-PL3-Asn-Cha-B5-Asp-Gln-iPrLys-Ala-Phe-Leu-PyrS2-3cbmf-BztA-Hse-NH2] |  |
| 3070 | CC(=O)N1CCC[C@]12CC=CCCCC1(CCCC=CCCCOC(=O)N3CC[C@@](C(=O)N[C@@H](Cc4ccccc4)C(=O)N[C@@H](Cc4csc5ccccc45)C(=O)N[C@@H](CCO)C(N)=O)(C3)NC(=O)[C@H](CC(N)=O)NC(=O)[C@H](Cc3ccccc3C(N)=O)NC(=O)[C@H](C)NC(=O)[C@H](CCCCNC(C)C)NC(=O)[C@H](CCC(N)=O)NC(=O)[C@H](CC(=O)O)NC1=O)NC(=O)[C@H](CC1CCCCC1)NC(=O)[C@H](CC(N)=O)NC2=O (stereo partly drawn) [I-2173, Ac-PL3-Asn-Cha-B5-Asp-Gln-iPrLys-Ala-2cbmf-Asn-PyrS2-Phe-BztA-Hse-NH2] |  |
| 2450 | CC(=O)N1CCC[C@]12CC=CCCCC1(CCCC=CCCOC(=O)N3CC[C@@](C(=O)N[C@@H](Cc4ccsc4)C(=O)N[C@@H](Cc4csc5ccccc45)C(=O)N[C@@H](CCC(N)=O)C(N)=O)(C3)NC(=O)[C@H](CC(N)=O)NC(=O)[C@H](Cc3ccccc3)NC(=O)[C@H](C)NC(=O)[C@H](C)NC(=O)[C@H]([C@@H](C)O)NC(=O)[C@H](CC(N)=O)NC1=O)NC(=O)[C@H](CC(C)(C)C)NC(=O)[C@H](CC(=O)O)NC2=O (stereo partly drawn) [I-2197, Ac-PL3-Asp-Npg-B5-Asn-Thr-Ala-Ala-Phe-Asn-PyrS1-3Thi-BztA-Gln-NH2] |  |
| 1470 | CC(=O)N1CCC[C@]12CC=CCCCC1(CCCC=CCCOC(=O)N3CC[C@@](C(=O)N[C@@H](Cc4ccsc4)C(=O)N[C@@H](Cc4csc5ccccc45)C(=O)N[C@@H](CCC(N)=O)C(N)=O)(C3)NC(=O)[C@H](CC(N)=O)NC(=O)[C@H](Cc3ccccc3)NC(=O)[C@H](C)NC(=O)[C@H](C)NC(=O)[C@H]([C@@H](C)O)NC(=O)[C@H](CC(N)=O)NC1=O)NC(=O)[C@H](CC(C)(C)C)NC(=O)[C@H](CC(=O)O)NC2=O (stereo partly drawn) [I-2198, Ac-PL3-Asp-Npg-B5-Asn-Thr-Ala-Ala-Phe-Asn-PyrS1-3Thi-BztA-Gln-NH2] |  |
| 927 | CC(=O)N1CCC[C@]12CC=CCCCC1(CCCC=CCCCCOC(=O)N3CC[C@@](C(=O)N[C@@H](Cc4ccsc4)C(=O)N[C@@H](Cc4csc5ccccc45)C(=O)N[C@@H](CCC(N)=O)C(N)=O)(C3)NC(=O)[C@H](CC(N)=O)NC(=O)[C@H](Cc3ccccc3)NC(=O)[C@H](C)NC(=O)[C@H](C)NC(=O)[C@H]([C@@H](C)O)NC(=O)[C@H](CC(N)=O)NC1=O)NC(=O)[C@H](CC(C)(C)C)NC(=O)[C@H](CC(=O)O)NC2=O (stereo partly drawn) [I-2199, Ac-PL3-Asp-Npg-B5-Asn-Thr-Ala-Ala-Phe-Asn-PyrS3-3Thi-BztA-Gln-NH2] |  |
